One test concerns HCT116 MTAP-deleted cell lines. Nature of the test: Cell viability assay (CellTiter-Glo, 7 days), HCT116 MTAP-deleted. In kind it is cell-based. As to conditions: Homo sapiens, HCT-116; cell viability assay, HCT116 MTAP-deleted; class symbols; read-out: CC50. As to the method:
Control compounds were analyzed in parallel each time for quality control. In Brief, on Day -1, a serial dilution of stock compounds in DMSO was performed using BioMek liquid handlers and dispensed using Echo acoustic dispenser into 384 well plates. Both tool compounds and sample compounds were spotted in the same plate for a dose response of PRMT5 inhibitors. Compound plates were stored as frozen until the cells were ready for seeding. […] After equilibrating the plate in room temperature, the cells were incubated for 7 days inside the sealed incubator set at 37° C. with 90% humidity and 5% CO2. On Day 7, the viability of cells was measured using a CTG assay kit (CellTitre-Glo;Promega cat no. G7573). Shortly, 40 μl per well of luminescent cell viability assay reagent were dispensed using EL460 liquid dispenser 5 μl cassette. CTG luminescence signal was measured using an EnVision plate reader (PerkinElmer) in accordance with manufacturer's instruction. […] Selectivity with * is artificially high due to limited solubility of the compound hampering accurate measurement of WT CC50.
For the compound `Nc1nc2cc(F)c(C(=O)N3CC[C@H]4C[C@@H]3c3ccc(OC(F)(F)F)cc3O4)cc2n2cncc12` (racemic) [Ff-372, Rac-(4-amino-7-fluoroimidazo[1,5-a]quinoxalin-8-yl)((2S,6R)-9-(trifluoromethoxy)-3,4-dihydro-2H-2,6-methanobenzo[b][1,5]oxazocin-5(6H)-yl)methanone], the CC50 was less than 100 nM.

Consider `Nc1nc2cnc(C(=O)N3CC[C@H]4C[C@@H]3c3ccc(OC(F)(F)F)cc3O4)cc2n2cncc12` (racemic) [Ff-373, Rac-(4-aminoimidazo[1,5-a]pyrido[3,4-e]pyrazin-8-yl)((2S,6R)-9-(trifluoromethoxy)-3,4-dihydro-2H-2,6-methanobenzo[b][1,5]oxazocin-5(6H)-yl)methanone], for which the cytotoxic concentration (CC50) was less than 100 nM.

As for `CC1(C)C[C@@H]2Oc3nc(C(F)(F)F)ccc3[C@@H]2N(C(=O)c2cc3c(cc2F)nc(N)c2cncn23)C1` (racemic) [Ff-384, Rac-(4-amino-7-fluoroimidazo[1,5-a]quinoxalin-8-yl)((4aS,9bS)-3,3-dimethyl-7-(trifluoromethyl)-3,4,4a,9b-tetrahydrofuro[2,3-b:4,5-b′]dipyridin-1(2H)-yl)methanone], the cytotoxic concentration (CC50) is less than 100 nM.

Turning to `Cc1ncn2c1c(N)nc1cc(F)c(C(=O)N3CC(C)(C)C[C@@H]4Oc5nc(C(F)(F)F)ccc5[C@@H]43)cc12` (racemic) [Ff-385, Rac-(4-amino-7-fluoro-3-methylimidazo[1,5-a]quinoxalin-8-yl)((4aS,9bS)-3,3-dimethyl-7-(trifluoromethyl)-3,4,4a,9b-tetrahydrofuro[2,3-b:4,5-b′]dipyridin-1(2H)-yl)methanone], the CC50 was less than 100 nM.

As to `Cc1ncn2c1c(N)nc1cnc(C(=O)N3C[C@H](C)C[C@@H]4CCc5cc(C(F)(F)F)ccc5[C@@H]43)cc12` (racemic) [Ff-462, Rac-(4-amino-3-methylimidazo[1,5-a]pyrido[3,4-e]pyrazin-8-yl)((3R,4aS,10bR)-3-methyl-8-(trifluoromethyl)-3,4,4a,5,6,10b-hexahydrobenzo[h]quinolin-1(2H)-yl)methanone], the CC50 was 100 to 1000 nM.

Staying with this test, now noted: Homo sapiens, HCT-116; cell viability, HCT116 MTAP-deleted; class symbols; read-out: CC50.
In the case of `Nc1nc2cc(F)c(C(=O)N3CCC[C@@H]4OCc5cc(-c6cnn(C(F)(F)F)c6)ccc5[C@@H]43)cc2n2cncc12` (racemic) [Ff-295, Rac-(4-amino-7-fluoroimidazo[1,5-a]quinoxalin-8-yl)((4aS,10bS)-8-(1-(trifluoromethyl)-1H-pyrazol-4-yl)-2,3,4,4a,6,10b-hexahydro-1H-isochromeno[4,3-b]pyridin-1-yl)methanone], the CC50 was less than 100 nM.

`Nc1nc2cc(F)c(C(=O)N3CCC[C@@H]4OCc5cc(-c6cnn(C(F)F)c6)ccc5[C@@H]43)cc2n2cncc12` (racemic) [Ff-296, Rac-(4-amino-7-fluoroimidazo[1,5-a]quinoxalin-8-yl)((4aS,10bS)-8-(1-(difluoromethyl)-1H-pyrazol-4-yl)-2,3,4,4a,6,10b-hexahydro-1H-isochromeno[4,3-b]pyridin-1-yl)methanone]: the CC50 is less than 100 nM.

With `Nc1nc2cc(F)c(C(=O)N3CCC[C@@H]4OCc5cc(-c6cnn(C7CC7)c6)ccc5[C@@H]43)cc2n2cncc12` (racemic) [Ff-297, Rac-(4-amino-7-fluoroimidazo[1,5-a]quinoxalin-8-yl)((4aS,10bS)-8-(1-cyclopropyl-1H-pyrazol-4-yl)-2,3,4,4a,6,10b-hexahydro-1H-isochromeno[4,3-b]pyridin-1-yl)methanone], the CC50 is less than 100 nM.

In the case of `Nc1nc2cc(F)c(C(=O)N3CCC[C@@H]4OCc5cc(-c6ccn(C(F)F)n6)ccc5[C@@H]43)cc2n2cncc12` (racemic) [Ff-298, Rac-(4-amino-7-fluoroimidazo[1,5-a]quinoxalin-8-yl)((4aS,10bS)-8-(1-(difluoromethyl)-1H-pyrazol-3-yl)-2,3,4,4a,6,10b-hexahydro-1H-isochromeno[4,3-b]pyridin-1-yl)methanone], the CC50 was less than 100 nM.

Take `COc1ccc2c(c1F)CO[C@H]1CCCN(C(=O)c3cc4c(cc3F)nc(N)c3cncn34)[C@@H]21` (racemic) [Ff-299, Rac-(4-amino-7-fluoroimidazo[1,5-a]quinoxalin-8-yl)((4aS,10bS)-7-fluoro-8-methoxy-2,3,4,4a,6,10b-hexahydro-1H-isochromeno[4,3-b]pyridin-1-yl)methanone]: the CC50 is less than 100 nM.

`COc1cc2c(cc1F)[C@H]1[C@H](CCCN1C(=O)c1cc3c(cc1F)nc(N)c1cncn13)OC2` (racemic) [Ff-300, Rac-(4-amino-7-fluoroimidazo[1,5-a]quinoxalin-8-yl)((4aS,10bS)-9-fluoro-8-methoxy-2,3,4,4a,6,10b-hexahydro-1H-isochromeno[4,3-b]pyridin-1-yl)methanone]: the CC50 was less than 100 nM.

Turning to `Nc1nc2cc(F)c(C(=O)N3CCC[C@@H]4OCc5cc(C6CC6)ccc5[C@@H]43)cc2n2cncc12` (racemic) [Ff-301, Rac-(4-amino-7-fluoroimidazo[1,5-a]quinoxalin-8-yl)((4aS,10bS)-8-cyclopropyl-2,3,4,4a,6,10b-hexahydro-1H-isochromeno[4,3-b]pyridin-1-yl)methanone], the CC50 is less than 100 nM.

With `Nc1nc2cc(F)c(C(=O)N3CCC[C@@H]4Cc5cc(C(F)(F)F)ccc5[C@@H]43)cc2n2cncc12` (racemic) [Ff-310, Rac-(4-amino-7-fluoroimidazo[1,5-a]quinoxalin-8-yl)((4aR,9bR)-7-(trifluoromethyl)-2,3,4,4a,5,9b-hexahydro-1H-indeno[1,2-b]pyridin-1-yl)methanone], the CC50 is less than 100 nM.

Consider `Nc1nc2cc(F)c(C(=O)N3CCC[C@@H]4Cc5nc(C(F)(F)F)ccc5[C@@H]43)cc2n2cncc12` (racemic) [Ff-314, Rac-(4-amino-7-fluoroimidazo[1,5-a]quinoxalin-8-yl)((4bR,8aR)-2-(trifluoromethyl)-4b,6,7,8,8a,9-hexahydro-5H-cyclopenta[1,2-b:3,4-b′]dipyridin-5-yl)methanone], for which the CC50 is less than 100 nM.

On to `C[C@@H]1C[C@@H]2CCc3cc(C(F)(F)F)ccc3[C@@H]2N(C(=O)c2cc3c(cc2F)nc(N)c2cncn23)C1` (racemic) [Ff-322, Rac-(4-amino-7-fluoroimidazo[1,5-a]quinoxalin-8-yl)((3R,4aS,10bR)-3-methyl-8-(trifluoromethyl)-3,4,4a,5,6,10b-hexahydrobenzo[h]quinolin-1(2H)-yl)methanone], for which the half-maximal cytotoxic concentration (CC50) is less than 100 nM.

For `C[C@@H]1C[C@@H]2OCc3nc(C(F)(F)F)ccc3[C@@H]2N(C(=O)c2cc3c(cc2F)nc(N)c2cncn23)C1` (racemic) [Ff-323, Rac-(4-amino-7-fluoroimidazo[1,5-a]quinoxalin-8-yl)((3R,4aS,10bS)-3-methyl-8-(trifluoromethyl)-2,3,4,4a,6,10b-hexahydro-1H-pyrano[3,2-b:5,4-b′]dipyridin-1-yl)methanone], the CC50 was less than 100 nM.

For the compound `Nc1nc2cc(F)c(C(=O)N3CCC[C@@H]4Oc5cc(OC(F)(F)F)ccc5[C@@H]43)cc2n2cncc12` (racemic) [Ff-331, Rac-(4-amino-7-fluoroimidazo[1,5-a]quinoxalin-8-yl)((4aS,9bS)-7-(trifluoromethoxy)-3,4,4a,9b-tetrahydrobenzofuro[3,2-b]pyridin-1(2H)-yl)methanone], the CC50 was less than 100 nM.

On to `Nc1nc2cc(F)c(C(=O)N3CCC[C@@H]4Oc5cc(OC(F)(F)F)c(F)cc5[C@@H]43)cc2n2cncc12` (racemic) [Ff-333, Rac-(4-amino-7-fluoroimidazo[1,5-a]quinoxalin-8-yl)((4aS,9bS)-8-fluoro-7-(trifluoromethoxy)-3,4,4a,9b-tetrahydrobenzofuro[3,2-b]pyridin-1(2H)-yl)methanone], for which the CC50 is less than 100 nM.

On to `Cc1ncc2c(N)nc3cc(Cl)c(C(=O)N4CCC[C@@H]5Oc6nc(C(F)(F)F)ccc6[C@@H]54)cc3n12` (racemic) [Ff-334, Rac-4-amino-7-chloro-1-methylimidazo[1,5-a]quinoxalin-8-yl)((4aS,9bS)-7-(trifluoromethyl)-3,4,4a,9b-tetrahydrofuro[2,3-b:4,5-b′]dipyridin-1(2H)-yl)methanone], for which the CC50 was less than 100 nM.

Turning to `Nc1nc2cc(F)c(C(=O)N3CCC[C@@H]4Oc5c(ccc(Cl)c5F)[C@@H]43)cc2n2cncc12` (racemic) [Ff-335, Rac-((4-amino-7-fluoroimidazo[1,5-a]quinoxalin-8-yl)((4aS,9bS)-7-chloro-6-fluoro-3,4,4a,9b-tetrahydrobenzofuro[3,2-b]pyridin-1(2H)-yl)methanone], the CC50 was less than 100 nM.

For the compound `Nc1nc2cnc(C(=O)N3CCC[C@@H]4Oc5cc(OC(F)(F)F)c(F)cc5[C@@H]43)cc2n2cncc12` (racemic) [Ff-338, Rac-(4-aminoimidazo[1,5-a]pyrido[3,4-e]pyrazin-8-yl)((4aS,9bS)-8-fluoro-7-(trifluoromethoxy)-3,4,4a,9b-tetrahydrobenzofuro[3,2-b]pyridin-1(2H)-yl)methanone], the CC50 was less than 100 nM.

Consider `Nc1nc2ccc(C(=O)N3CCC[C@@H]4Oc5cc(OC(F)(F)F)c(F)cc5[C@@H]43)cc2n2cncc12` (racemic) [Ff-339, Rac-(4-aminoimidazo[1,5-a]quinoxalin-8-yl)((4aS,9bS)-8-fluoro-7-(trifluoromethoxy)-3,4,4a,9b-tetrahydrobenzofuro[3,2-b]pyridin-1(2H)-yl)methanone], for which the CC50 was less than 100 nM.

As to `Nc1nc2cc(F)c(C(=O)N3CCC[C@@H]4Oc5cc(OC(F)(F)F)cc(F)c5[C@@H]43)cc2n2cncc12` (racemic) [Ff-350, Rac-(4-amino-7-fluoroimidazo[1,5-a]quinoxalin-8-yl)((4aS,9bS)-9-fluoro-7-(trifluoromethoxy)-3,4,4a,9b-tetrahydrobenzofuro[3,2-b]pyridin-1(2H)-yl)methanone], the CC50 is less than 100 nM.

These data come from patent US12448388B2, “PRMT5 inhibitors and uses thereof” (Gilead Sciences, Inc., priority 2023, dated 2025).
